# Data taken from patent US20240074473A1, “METHOD FOR INDUCING HYPERTROPHIC MUSCLE FIBERS FOR INDUSTRIAL MEAT PRODUCTION” (Yeda Research and Development Co. Ltd., priority 2021, published 2024).
# Columns and labels:
# Format in all cases: cell-based
# primary mouse myoblasts [1] = experiment: Proliferation markers KI-67 and pH3 staining in primary mouse myoblasts; conditions: 1 μM ERKi, 24 hours
# Experimental: Immunofluorescence staining. First passage primary myoblasts isolated from various strains (indicated in figure legends) were plated in 96-well plates or chamber slides and treated as previously described. The cells were fixed with ice cold 4% PFA in PBS for 10 minutes, permeabilized with 0.5% Triton X-100 in PBS for 6 minutes, and blocked in PBS with 0.025% tween, 10% normal horse serum and 10% normal goat serum for 1 hour at room temperature. Primary antibody incubation was done in blocking buffer overnight at 4 degrees, with the following antibodies: Myosin Heavy Chain (MyHC, MF20, DSHB hybridoma supernatant 1:10, or MY-32 ABCAM ab51263 1:400), Myogenin (MYOG sc-13137 SCBT 1:200), pHistone 3 (PH3, ab47297 ABCAM 1:1000), Ki-67 (Cell Marque #275R), RYR (ab2868 ABCAM 1:100), and pCaMKII (SIGMA SAB4504356 1:100). Cells were washed 3 times in PBS with 0.025% tween and then incubated with appropriate secondary antibodies in PBS 1 hour. Where indicated, nuclei were either labeled with DAPI (SIGMA D9542, 5 ug/ml) or Hoechst 33342 (Thermo scientific #62249, 1:2000). Fixed cells at 24 hours post treatment with indicated inhibitors were imaged using the Nikon Eclipse Ti2 microscope (further described in microscopy section). All analysis was performed on at least 1000 nuclei. […]
# bovine myoblasts = experiment: Immunofluorescence intensity of sarcomeric proteins in bovine myotubes; conditions: 96 hours post-treatment
# Experimental: Shown is immunofluorescence staining of the sarcomeric components of myosin heavy chain (MyHC), alpha-actinin, and Tropoinin T at 96 hours post treatment either with proliferation media (PM), differentiation media (DM), or with 1 uM SCH 772984 (ERKi).
# primary mouse myoblasts [2] = experiment: MYOG positive nuclei in primary mouse myoblasts (immunofluorescence); conditions: 24 hours, ERKi in growth medium
# Experimental: Isolation of and treatment of primary myoblasts. Primary mouse myoblasts were isolated from gastrocnemius muscle using trypsin-tissue dissociation. Briefly, muscle tissues were incubated in Trypsin B (0.25%, Biological Industries) and subjected to mechanical dissociation with a serological pipet. Supernatants were strained and centrifuged. Pellets were grown resuspended in BioAmf-2 media (Biological Industries, Israel) and plated on 10% Matrigel (BD Biosciences)-coated plates at 37° and 5% CO2. For all in vitro experiments, proliferation medium was Bio-Amf2 (Biological Industries, Israel) and Differentiation medium (DM) was DMEM 2% Horse Serum (HS) with 1% Pen/Strep. For fusion assays, cells were trypsinized with Trypsin C (0.05%, Biological Industries) and subjected to two rounds of preplating on uncoated plates to reduce the number of fibroblasts. Cells were plated at a density of 8×10^3 per well in 10% Matrigel-coated 96-well plates in proliferation medium for 24 hours. The following day, proliferation media was replaced either with proliferation media or with DM containing DMSO (Ctrl) or 1 μM ERK1/2 inhibitor (ERKi; SCH772984, Cayman Chemicals), […] RXR antagonist (RXRi; HX-531, Cayman Chemicals), […] Ryanodine receptor antagonist (RYRi; Dantrolene, Cayman Chemicals), 5 μM CaMKII inhibitor (CaMKIIi; KN93, Cayman Chemicals), or with DM for controls.
# Immunofluorescence staining. First passage primary myoblasts isolated from various strains (indicated in figure legends) were plated in 96-well plates or chamber slides and treated as previously described. The cells were fixed with ice cold 4% PFA in PBS for 10 minutes, permeabilized with 0.5% Triton X-100 in PBS for 6 minutes, and blocked in PBS with 0.025% tween, 10% normal horse serum and 10% normal goat serum for 1 hour at room temperature. Primary antibody incubation was done in blocking buffer overnight at 4 degrees, with the following antibodies: Myosin Heavy Chain (MyHC, MF20, DSHB hybridoma supernatant 1:10, or MY-32 ABCAM ab51263 1:400), Myogenin (MYOG sc-13137 SCBT 1:200), pHistone 3 (PH3, ab47297 ABCAM 1:1000), Ki-67 (Cell Marque #275R), RYR (ab2868 ABCAM 1:100), and pCaMKII (SIGMA SAB4504356 1:100). Cells were washed 3 times in PBS with 0.025% tween and then incubated with appropriate secondary antibodies in PBS 1 hour. Where indicated, nuclei were either labeled with DAPI (SIGMA D9542, 5 ug/ml) or Hoechst 33342 (Thermo scientific #62249, 1:2000). Fixed cells at 24 hours post treatment with indicated inhibitors were imaged using the Nikon Eclipse Ti2 microscope (further described in microscopy section). All analysis was performed on at least 1000 nuclei. For fixed cells following the timecourse with ERKi or DM (FIG. 1B), images were captured with an inverted Olympus IX83 microscope (further details in microscopy section). All imaging analysis were performed on at least 1000 cells.
# [3] = tested on: primary chicken myoblasts; experiment: Fusion index of primary chicken myoblasts (MyHC immunostaining); conditions: for Fusion: 48 hours post treatment
# Experimental: Chicken primary derived myoblasts were used as a model to evaluate the efficiency of SCH772984 as the ERKi, compared to conventional differentiation medium (DM) for the purpose of producing muscle (meat) in tissue culture conditions. Chicken myoblasts were isolated from chicken embryos and expanded in proliferation medium. When sufficient cell numbers were acquired, cells were seeded on tissue culture plates and allowed to adhere for 24 hours. Then medium was changed to either PM supplemented with ERKi or DM. At 24-hours post treatment, the cells that received ERKi were replenished with fresh PM (without the addition of more ERKi), and DM treated cells were replenished with fresh DM. Media was replaced daily over a period of 72 hours.
# Evaluation of muscle fiber formation was achieved by fixing the cells and staining for expression of Myosin Heavy Chain (FIG. 9A). […] Yet, treatment with conventional DM only began to form fibers beginning at 72-hours post treatment. A fusion index was quantified at 72 hours post treatment (FIG. 9B), in which the percentage of total nuclei present in a myotube (MyHC positive cell with 2 or more nuclei).
# Primary chicken myoblast isolation and treatment: chicken myoblasts were isolated from broiler chicken embryos at day 18 from breast and leg muscles by using Trypsin B. Following tissue dissociation, the cell suspension was grown for 3-4 days on 10% Matrigel coated plates. At the first passage, the cells were lifted and pre-plated twice for 30 minutes to enrich for myoblasts and reduce the number of fibroblasts. Then cells were seeded at 8,000/well of optical-96 well plates in proliferation medium. 24 hours after plating, media was aspirated and replaced with the indicated treatment conditions in proliferation media or differentiation media (as indicated). After 24 hours with treatment, the media was aspirated and all wells were replenished with fresh proliferation media or differentiation media without any treatment. This was repeated daily. Cells were fixed at 48 hours after treatment. Compounds were purchased from Cayman Chemicals.
# Immunofluorescent staining: Cells were fixed with ice cold 4% PFA in PBS for 10 minutes, permeabilized with 0.5% Triton X-100 in PBS for 6 minutes, and blocked in PBS with 0.025% tween, 10% normal horse serum and 10% normal goat serum for 1 hour at room temperature. Primary antibody incubation was done in blocking buffer overnight at 4 degrees, with the following antibodies: Myosin Heavy Chain (MyHC, MF20, DSHB hybridoma supernatant 1:10, alpha-actinin (SIGMA A7811). Cells were washed 3 times in PBS with 0.025% tween and then incubated with appropriate secondary antibodies in PBS 1 hour. Nuclei were labeled with DAPI (SIGMA D9542, 5 ug/ml). All fusion indexes and imaging analysis were performed on at least 1000 per technical repeat.
smiles,measurement,setting,value
O=C(Nc1ccc2[nH]nc(-c3ccncc3)c2c1)[C@@H]1CCN(CC(=O)N2CCN(c3ccc(-c4ncccn4)cc3)CC2)C1 [SCH772984],Cell cycle (KI-67 and phosphorylated Histone 3 staining),primary mouse myoblasts [1],undergo cell-cycle arrest
same,"Maturation markers (sarcomeric proteins MyHC, actinin, troponin signal intensity) compared to DM",bovine myoblasts,increased
same,Fraction of MYOG positive nuclei compared to DM,primary mouse myoblasts [2],significantly higher
same,Muscle fibers begin to form earlier than with DM,[3]; chicken myoblasts,48 h
same,Increase in fusion index compared to DM,"[3]; chicken myoblasts, 72 hours post treatment",~4 fold
same,Fusion index (percentage of total nuclei in MyHC positive cell with 2 or more nuclei),"[3]; chicken myoblasts, 72 hours post treatment, ERKi in PM vs DM",62%
same,Time at which myotubes/fibers begin to form,"[3]; chicken myoblasts, post treatment",≤ 24 h
same,Fusion,"[3]; primary chicken myoblasts, Differentiation media, 1 uM",46%
same,Fusion,"[3]; primary chicken myoblasts, Differentiation media, 10 uM",61%
same,Fusion,"[3]; primary chicken myoblasts, Proliferation media, 1 uM",59%
same,Fusion,"[3]; primary chicken myoblasts, Proliferation media, 10 uM",69%
same,Fusion index,"[3]; primary chicken myoblasts, proliferation medium, ERKi treatment alone (SCH772984 1 uM), 48 hours",62%
